From patent US20140005268A1, “PHARMACEUTICAL COMPOSITION FOR TREATING OXIDATIVE STRESS-INDUCED PATHOLOGY AND USE THEREOF” (priority 2011, published 2014)

system: hemorrhoids (Goligher type I, II, III and IV); assay: Clinical test of rectally administered suppositories in volunteers with hemorrhoids (Goligher's classification); format: in vivo; conditions: adult human beings of both genders, 20 to 80 years old, daily dosage as in Table 1, average ± standard error, n=20
Method: For such, various volunteers were randomly selected.
In short, volunteers, aging from 20 to 80 years old, were tested and observed for 28 days by rectally administering suppositories of 2 g each, containing the active ingredients in the indicated proportion: methionine (170 mg/day), cysteine (20 mg/day) and phenylalanine (10 mg/day) each.
The indicated values in the Table are average values in 20 experiments±standard errors (n=20).

SMILES	Bleeding inhibition after 72 h (%)	Relapse after 5 years (%)
N[C@@H](CS)C(=O)O [L-cysteine]	10 ± 1	80 ± 8
CSCC[C@H](N)C(=O)O [L-methionine]	70 ± 7	15 ± 2
N[C@@H](Cc1ccccc1)C(=O)O [L-phenylalanine]	2 ± 1	90 ± 9
